Data on 1 molecule can be found in article PMC6934184, “Selective DNA-PKcs inhibition extends the therapeutic index of localized radiotherapy and chemotherapy” (The Journal of Clinical Investigation, 2019).

As usually defined, the inhibition is the drop in the measured response relative to a control, in per cent. A higher inhibition goes with a response far below the control.

The structures appear in SMILES notation.

The target in this experiment is T1, LCK (Homo sapiens, UniProt P06239).
T1 construct: purchased Thermo Fisher Scientific (Life Technologies) SelectScreen
T1 sequence (P06239 whole entry): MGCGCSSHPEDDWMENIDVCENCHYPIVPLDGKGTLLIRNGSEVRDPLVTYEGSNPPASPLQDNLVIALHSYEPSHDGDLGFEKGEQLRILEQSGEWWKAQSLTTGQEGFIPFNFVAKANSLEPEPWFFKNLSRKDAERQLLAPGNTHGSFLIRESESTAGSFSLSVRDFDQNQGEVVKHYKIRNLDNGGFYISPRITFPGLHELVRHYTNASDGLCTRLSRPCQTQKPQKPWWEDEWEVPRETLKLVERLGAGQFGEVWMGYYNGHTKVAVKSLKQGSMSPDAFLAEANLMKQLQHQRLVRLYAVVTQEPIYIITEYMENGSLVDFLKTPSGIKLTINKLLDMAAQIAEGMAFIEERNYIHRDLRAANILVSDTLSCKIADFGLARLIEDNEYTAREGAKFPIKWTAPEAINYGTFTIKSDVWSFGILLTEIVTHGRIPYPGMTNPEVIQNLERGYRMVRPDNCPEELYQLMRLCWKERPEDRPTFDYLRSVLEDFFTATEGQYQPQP
Briefly: SelectScreen Z'LYTE. The format is biochemical. A digest of the protocol:
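NU5455 was profiled across the SelectScreen Broad panel of kinase activity and binding assays. Z'LYTE reactions such as CSF1R ran at apparent Km ATP, while the Adapta CAMK1 assay used ATP listed as 10. Values are given as percent.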

Regarding `CN(C(=O)CN1CCOCC1)c1ccc2sc3c(-c4cccc5c(=O)cc(N6CC7CCC(C6)O7)oc45)cccc3c2c1` [NU5455], testing at 1 µM gave an inhibition of 9.6%.
